Measured values reported in US5955501A, “Protein kinase C modulators O” (priority 1995, dated 1999).

Columns and labels:
[1] = system: diacylglycerol/phorboid-type binding sites in mouse skin and in purified preparations of protein kinase C isotypes; details: Dunn and Blumberg; Ryves et al. 1991; cited from earlier work
[2] = system: HL-60 promyelocytic leukemia cells; test: Anti-leukemic activity: MTT cell growth assay; format: cell-based; details: Homo sapiens, HL-60, 192 h, 8 days incubation, read-out: IC50 (drug concentration which leads to 50% of cells per well compared to control cultures)
Method: HL-60 promyelocytic leukemia cells were cultured in RPMI 1640 medium supplemented with 10% fetal bovine serum. Cells (7,500) were seeded into 96-well microtiter plates and incubated overnight. Serial dilutions of 20-deoxy-20-(2'-hydroxyethylthio)phorbol 12-myristate 13-acetate (dissolved in DMSo and then diluted with culture medium) were added to the wells on day 1. The plates were incubated for 8 days to allow the control cultures to undergo at least 3 cell divisions. The cell growth was monitored by using the calorimetric MTT (tetrazolium) assay [Mosmann, T., J. Immunol. Meth. 65: 55-63 (1983)]. After the incubation period, the cells were washed with phosphate-buffered saline in the microtiter plate. DMSO was then added to each well and the dish was put on a shaker for 20 min. The optical density was measured at 540 nm and compared using the formula:(OD Test OD Start)/(OD Control - OD Start) x 100.

[3] = system: T-24 human bladder carcinoma cells; test: Anti-cancer activity: methylene blue cell growth assay; format: cell-based; details: 5-6 days incubation, methylene blue staining, read-out: IC50 (drug concentration which leads to 50% of cells per well compared to control cultures)
Method: T-24 human bladder carcinoma cells were cultured in Eagle's minimal essential medium supplemented with 5% fetal bovine serum. Cells (1,000) were seeded into 96-well microtiter plates and incubated overnight. Serial dilutions of 20-deoxy-20(2'-hydroxyethylthio)phorbol 12-myristate 13-acetate (dissolved in DMSO and then diluted with culture medium) were added to the wells on day 1. The plates were incubated for 5-6 days to allow the control cultures to undergo at least 3 cell divisions. After the incubation period, the cells were fixed with glutaraldehyde, washed with water and stained with 0.05% methylene blue. After washing the dye was eluted with 3% HCl. The optical density per well was measured at 665 nm and compared using the formula:(OD Test-OD Start)/(OD Control-OD Start)×100.

HIV = test: Anti-HIV activity in HIV-infected human peripheral blood lymphocytes (supernatant viral RNA and p24 core protein); format: cell-based; details: Human immunodeficiency virus 1, Lymphocyte; from dose-response curves or by estimation from one or more experimental drug concentrations; read-out: anti-HIV ED50 for RNA
Method: Human peripheral blood lymphocytes were isolated from the buffy coat fractions of blood donations. The lymphocytes were then stimulated with 5 μg/ml of phytohemagglutinin for 48 hours. Prior to infection with HIV, the lymphocytes were washed and resuspended in mitogen-free medium. On day 0 the cells were infected with HIV and were cultured for four days in the presence or absence of graded concentrations of 20-deoxy-20-chlorophorbol 12,13-bis[(2',4'-difluorophenyl)acetate]. On days 3 and 4 the supernatant levels of total viral RNA and viral core protein p24 were determined at each drug concentration and dose-response curves were used to determine the concentration of drug giving 50% inhibition of production of viral RNA and of p24 core protein. At four days these ED50 values were less than 100 pM for both RNA and p24.
(§1) In a manner similar to Example 111, the anti-HIV ED50 values for RNA [drug concentration is in brackets] for the following diterpenoid compounds were determined from dose-response curves or by estimation from one or more experimental drug concentrations.
as §1, with “indolactam-type” for “diterpenoid”, “concentrations, data giving percent inhibition of viral RNA production at selected concentrations appear in parentheses:” for “concentrations.”
as §1, with “diacylglycero-type” for “diterpenoid”, “concentrations; data giving percent inhibition of viral RNA production at selected concentrations appear in parentheses: […]” for “concentrations.”

[4] = Anti-viral properties (test not described at the place)
diacylglycerol site = test: Diacylglycerol site binding activity (test not described at the place)
[5] = system: Human RPMI-7272 melanoma cells; test: Anti-melanoma activity: inhibition of cell doublings; format: cell-based; details: 72 h of exposure, read-out: ID50 (concentration of drug required to inhibit cell doublings by 50%)
Method: Human RPMI-7272 melanoma cells were grown in the standard culture medium under normal incubation conditions. On day 1 the cells were cultured in the absence (control) or presence of graded concentrations (3-100 μg/ml) of 20-deoxy-20-(2'-hydroxyethylthio)phorbol 12-myristate 13-acetate in separate tubes. On day 4 after 72 h of exposure the number of cells in each tube was measured and the number of cell doublings determined. The drug treated tubes were compared to the control tube.

[6] = system: phorbol 12-myristate 13-acetate induced ear inflammation/erythema; test: Mouse ear inflammation test: inhibition of phorbol 12-myristate 13-acetate induced inflammation/erythema; format: in vivo, mice
Method: Method: A stock solution of 300 pmoles of the standard inflammatory compound phorbol 12-myristate 13-acetate per 5 μL acetone was prepared. This solution was used to prepare four-fold dilutions of 20-deoxy-20-(2'-hydroxyethylthio)phorbol 12-myristate 13-acetate, prepared as in Example 3, covering concentrations of the latter ranging from 4 to 64,000 pmoles per 5 μL.

In the case of thymeleatoxin, the “selectivity factor in dissociation constant among the different binding sites” value [1] is listed as 10-1000.
`CCCCCCCCCCCCCC(=O)O[C@@H]1[C@@H](C)[C@@]2(O)[C@@H](C=C(COC(=O)NC)C[C@]3(O)C(=O)C(C)=C[C@@H]23)[C@@H]2C(C)(C)[C@]12OC(C)=O` [phorbol 12-myristate 13-acetate 20-methylcarbamate] showed an IC50 [2] of 2600 nM and an IC50 [3] of 6300 nM.
For `CC1=C[C@H]2[C@@]3(O)[C@H](C)C[C@]4(OC(=O)C(C)C)[C@H]([C@@H]3C=C(CO)C[C@]2(O)C1=O)C4(C)C` [12-deoxyphorbol 13-isobutyrate], the “selectivity factor in dissociation constant among the different binding sites” value [1] is given as 10-1000.
Molecule `CCCCCCCCCCCCCC(=O)O[C@@H]1[C@@H](C)[C@@]2(O)[C@@H](C=C(CC#N)C[C@]3(O)C(=O)C(C)=C[C@@H]23)[C@@H]2C(C)(C)[C@]12OC(C)=O` [20-deoxy-20-cyanophorbol 12-myristate 13-acetate] has an IC50 [3] of 2000 nM and an EC50 (HIV) of 1500 nM.
In the case of `CC1=C[C@H]2[C@@]3(O)[C@H](C)C[C@]4(OC(=O)Cc5ccccc5)[C@H]([C@@H]3C=C(CO)C[C@]2(O)C1=O)C4(C)C` [12-deoxyphorbol 13-phenylacetate], the “selectivity factor in dissociation constant among the different binding sites” value [1] is listed as 10-1000.
With `CCCCCCCCCCCCCC(=O)O[C@@H]1[C@@H](C)[C@@]2(O)[C@@H](C=C(CCC3=C[C@H]4[C@@H]5C(C)(C)[C@]5(OC(C)=O)[C@H](OC(=O)CCCCCCCCCCCCC)[C@@H](C)[C@]4(O)[C@@H]4C=C(C)C(=O)[C@@]4(O)C3)C[C@]3(O)C(=O)C(C)=C[C@@H]23)[C@@H]2C(C)(C)[C@]12OC(C)=O` [20-Deoxy-20-[20'-deoxyphorbol-20'-yl(12'-myristate 13'-acetate)]phorbol 12-Myristate 13-Acetate] the anti-viral properties [4] was “anti-viral properties” and the “diacylglycerol site binding activity” value (diacylglycerol site) was “still exhibits diacylglycerol site binding activity”.
Work on `CCCCCCCCCCCCCC(=O)O[C@@H]1[C@@H](C)[C@@]2(O)[C@@H](C=C(CSCCO)C[C@]3(O)C(=O)C(C)=C[C@@H]23)[C@@H]2C(C)(C)[C@]12OC(C)=O` [20-deoxy-20-(2'-hydroxyethylthio)phorbol 12-myristate 13-acetate] yielded an IC50 [2] of 5400 nM, an IC50 [5] of 42000 nM and an IC50 [3] of 13000 nM. For the same molecule, the “inhibition of phorbol 12-myristate 13-acetate induced ear inflammation/erythema” value ([6]; applied with 300 pmoles phorbol 12-myristate 13-acetate per 5 μL acetone to inside of right ear, observed 1 to 48 hours) was “Inhibition of the phorbol 12-myristate 13-acetate induced inflammation was observed at the medium and higher concentrations”.
For `CCCC(=O)O[C@@H]1[C@@H](C)[C@@]2(O)[C@@H](C=C(CO)C[C@]3(O)C(=O)C(C)=C[C@@H]23)[C@@H]2C(C)(C)[C@]12OC(=O)CCC` [phorbol 12,13-dibutyrate], the “selectivity factor in dissociation constant among the different binding sites” value [1] is given as 10-1000.
With `CC1=C[C@H]2[C@@]3(O)[C@H](C)[C@@H](OC(=O)Cc4ccc(F)cc4F)[C@]4(OC(=O)Cc5ccc(F)cc5F)[C@H]([C@@H]3C=C(CSCCO)C[C@]2(O)C1=O)C4(C)C` [20-deoxy-20-(2'-hydroxyethylthio)phorbol 12,13-bis[(2',4'-difluorophenyl)acetate]] the EC50 (HIV) was 1000 nM.
With `CC1=C[C@H]2[C@@]3(O)[C@H](C)[C@@H](OC(=O)Cc4ccc(F)cc4F)[C@]4(OC(=O)Cc5ccc(F)cc5F)[C@H]([C@@H]3C=C(CBr)C[C@]2(O)C1=O)C4(C)C` [20-deoxy-20-bromophorbol 12,13-bis[(2',4'-difluorophenyl)acetate]] the EC50 (HIV) was under 1 nM.
For `CCCCCCCCCCCCCC(=O)O[C@@H]1[C@@H](C)[C@@]2(O)[C@@H](C=C(CS(=O)(=O)CCO)C[C@]3(O)C(=O)C(C)=C[C@@H]23)[C@@H]2C(C)(C)[C@]12OC(C)=O` [20-deoxy-20-(2'-hydroxyethylsulfonyl)phorbol 12-myristate 13-acetate], the EC50 (HIV) was 500 nM.
With `C=C1C[C@]2(O)C(=O)C(C)=C[C@H]2[C@@]2(O)[C@H](C)[C@@H](OC(=O)CCCCCCCCCCCCC)[C@]3(OC(C)=O)[C@H]([C@@H]2C1CO)C3(C)C` (stereo partly drawn) [12-β-myristoyloxy-13-acetoxy-4,9-dihydroxy-7-hydroxymethyl-1,6(20)-tigliadien-3-one] the IC50 [2] was 5200 nM, the IC50 [3] was 5500 nM and the anti-inflammatory activity ([6]; general statement in the description, test not named there) was “good anti-inflammatory activity”.
`CC1=C[C@H]2[C@@]3(O)[C@H](C)[C@@H](OC(=O)Cc4c(F)c(F)c(F)c(F)c4F)[C@]4(OC(=O)Cc5c(F)c(F)c(F)c(F)c5F)[C@H]([C@@H]3C=C(CF)C[C@]2(O)C1=O)C4(C)C` [20-deoxy-20-fluorophorbol 12,13-bis[(pentafluorophenyl)acetate]] gave an EC50 (HIV) of 1 nM.
